In publication PMC4113456, “Atypical Signaling and Functional Desensitization Response of MAS Receptor to Peptide Ligands” (PLoS ONE, 2014):

Experiments:
Type in all cases: cell-based
[1] = target: T1, MAS (Homo sapiens, UniProt P04201); experiment: SRF-RE luciferase reporter assay (Gα12-dependent), induced WT MAS stable cell line; conditions: induced cells
T1 construct: expressed in transfected cells
T1 sequence (P04201 1-325): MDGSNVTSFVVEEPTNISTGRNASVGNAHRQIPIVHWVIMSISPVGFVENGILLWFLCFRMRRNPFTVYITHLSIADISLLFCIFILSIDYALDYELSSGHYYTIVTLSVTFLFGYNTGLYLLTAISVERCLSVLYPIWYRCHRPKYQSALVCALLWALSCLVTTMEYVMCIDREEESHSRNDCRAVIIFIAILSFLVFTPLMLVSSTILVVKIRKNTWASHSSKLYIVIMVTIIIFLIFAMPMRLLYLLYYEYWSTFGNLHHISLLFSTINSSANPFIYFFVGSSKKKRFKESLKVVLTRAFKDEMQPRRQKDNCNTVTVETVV
Description: The luciferase assay was performed using pGL4 luciferase reporter vectors and Dual-Glo Luciferase Assay System (Promega, Madison, WI). For this assay, the inducible MAS stable cells were initially plated in a 10 cm plate and left overnight in a cell culture incubator. The following day the cells were transfected with 5 µg of pGL4.34 plasmid containing serum response factor response element (SRF-RE)-firefly luciferase reporter gene and 1 µg of pGL4.73 plasmid containing renilla luciferase (as a transfection efficiency control). […] After 8 h of transfection and induction, the cells were seeded onto a 96-well clear bottom black cell culture plate (pre-coated with poly-L-lysine) at a density of 125,000 cells/well in 100 µl of minimal medium (with reduced serum of 0.5%). The plate was maintained in a cell culture incubator for 18–20 h. At this point 50 µl of media in the cells was replaced with 50 µl of serum free media containing ligands at 2x the desired concentration and incubated for an additional 6 h. Finally, the luciferase activity in the cells was measured according the protocol provided by the manufacturer. The luminescence measurements (RLU) in the cells were obtained on FlexStation 3 instrument.
For re-stimulation assays, the data is expressed as the percentage of maximum agonist stimulation to allow for ready comparison between individual experiments. […] In the luciferase assay, the luminescence measurements (RLU) are presented as a ratio of firefly to renilla luciferase activity. For all the assays, the EC50 and IC50 values were estimated by fitting the data to a three parameter dose response using GraphPad Prism software (GraphPad, La Jolla, CA).

[2] = target: T2, untagged WT MAS (Homo sapiens, UniProt P04201); experiment: Calcium assay, untagged WT MAS inducible HEK293 stable cell line
T2 construct: expressed in transfected cells
T2 sequence (P04201 1-325): T1 sequence (P04201 1-325)
Description: The assay was performed using FLIPR Calcium 5 assay kit (Molecular Devices, Sunnyvale, CA). For calcium measurements, cells at a density of 125,000 cells/well in 100 µl medium were seeded onto a 96-well clear bottom black cell culture plate that was pre-coated with poly-L-lysine. In the calcium assays the cell density of 125,000 cells/well was consistently maintained to minimize variability between independent experiments. The cells were seeded in induction media to induce MAS expression or in complete media for negative controls. The plate was maintained in a cell culture incubator for 26–28 h. The cells were then serum starved for 2 h by replacing the medium with 100 µl of serum free DMEM. In the case of pre-treatment with pan-inhibitor of G protein signaling, BIM-46187, the cells were initially serum starved for 1 h by replacing the medium with 50 µl of serum free DMEM. After 1 h, 50 µl of BIM-46187 was added to the cells to a final concentration of 25 µM and treated for another 1 h. Following serum starvation, 100 µl of calcium sensitive dye along with 2x (2.5 mM final concentration) probenecid (Life Technologies, Grand Island, NY) was added to the cells. During this step, AR-inverse agonist or BIM-46187 was also added at desired concentrations to the calcium dye preparation in case of experiments where cells were pre-treated with these inhibitors. The cells were maintained for one hour in the cell culture incubator. Following this, the 96-well plate containing cells loaded with calcium dye and a U-bottom 96-well plate containing ligands at 5x the desired final concentration in D-PBS (1.47 mM KH2PO4, 138 mM NaCl, 2.67 mM KCl, 8.1 mM Na2HPO4, pH 7.3) were allowed to equilibrate for 15 min on a FlexStation 3 instrument (Molecular Devices, Sunnyvale, CA) at 37°C. The plates were further equilibrated on the instrument for 5 min with the lids removed from the plates. The instrument was programmed in FLEX mode to add ligands (50 µl at 5x concentration) to the cells and to monitor the fluorescence before and after adding the ligands. […]

[3] = target: T1, MAS; experiment: Calcium re-stimulation and antagonism assays, MAS expressing stable cells
Description: The assay was performed using FLIPR Calcium 5 assay kit (Molecular Devices, Sunnyvale, CA). For calcium measurements, cells at a density of 125,000 cells/well in 100 µl medium were seeded onto a 96-well clear bottom black cell culture plate that was pre-coated with poly-L-lysine. In the calcium assays the cell density of 125,000 cells/well was consistently maintained to minimize variability between independent experiments. The cells were seeded in induction media to induce MAS expression or in complete media for negative controls. The plate was maintained in a cell culture incubator for 26–28 h. The cells were then serum starved for 2 h by replacing the medium with 100 µl of serum free DMEM. In the case of pre-treatment with pan-inhibitor of G protein signaling, BIM-46187, the cells were initially serum starved for 1 h by replacing the medium with 50 µl of serum free DMEM. After 1 h, 50 µl of BIM-46187 was added to the cells to a final concentration of 25 µM and treated for another 1 h. Following serum starvation, 100 µl of calcium sensitive dye along with 2x (2.5 mM final concentration) probenecid (Life Technologies, Grand Island, NY) was added to the cells. During this step, AR-inverse agonist or BIM-46187 was also added at desired concentrations to the calcium dye preparation in case of experiments where cells were pre-treated with these inhibitors. The cells were maintained for one hour in the cell culture incubator. […] The instrument was programmed in FLEX mode to add ligands (50 µl at 5x concentration) to the cells and to monitor the fluorescence before and after adding the ligands. […]
For re-stimulation assays, the data is expressed as the percentage of maximum agonist stimulation to allow for ready comparison between individual experiments. For the IP1 assay, a standard curve was generated using the 4-Parameter logistic equation fit of the HTRF readings of IP1 standards using the SoftMax Pro software. […] In the luciferase assay, the luminescence measurements (RLU) are presented as a ratio of firefly to renilla luciferase activity. […]

SMILES	EC50 [1]	EC50 ([2]; read-out: EC50, calcium flux)	Response to second agonist (NPFF or AR-agonist) after first stimulation with the ligand ([3]; re-stimulation assay, second ligand at 600 s)	IC50 [1]	IC50 ([2]; read-out: IC50, calcium flux)	Inhibition of NPFF calcium response ([3]; first ligand at 25 µM, then NPFF)	Inhibition of AR-agonist calcium dose-response by pre-treatment ([3]; pre-treatment at 25 µM)
COc1cc([N+](=O)[O-])ccc1S(=O)(=O)N1CC(CN2CCN(c3ccccn3)CC2)C(c2cccc(F)c2)C1 (stereo not shown) [AR-agonist]	500 ± 100 nM	1200 ± 100 nM	did not respond				
C=CCCN1CCC2(CC1)CN(C(=O)c1c(F)cccc1F)c1ccc(Cl)cc12 [AR-inverse]				400 ± 100 nM	500 ± 400 nM	completely inhibited	complete inhibition
